Measurements reported in publication PMC12246613, “Molecular basis of acyl-CoA ester recognition by α-methylacyl-CoA racemase from Mycobacterium tuberculosis” (The Journal of Biological Chemistry, 2025).
Several values for one entry are separate records, joined by “and”; a condition that tells them apart may be missing. Equal entries are not always repeated.

Assays:
[1] = target: human AMACR 1A; settings: cited from earlier work
[2] = target: T1, MCR (α-methylacyl-CoA racemase from Mycobacterium tuberculosis) (Mycobacterium tuberculosis, UniProt O06543); assay: Kinetic assay (Ki and mode of inhibition, colorimetric assay); assay type: biochemical; parameters: made in house
T1 sequence (O06543 whole entry): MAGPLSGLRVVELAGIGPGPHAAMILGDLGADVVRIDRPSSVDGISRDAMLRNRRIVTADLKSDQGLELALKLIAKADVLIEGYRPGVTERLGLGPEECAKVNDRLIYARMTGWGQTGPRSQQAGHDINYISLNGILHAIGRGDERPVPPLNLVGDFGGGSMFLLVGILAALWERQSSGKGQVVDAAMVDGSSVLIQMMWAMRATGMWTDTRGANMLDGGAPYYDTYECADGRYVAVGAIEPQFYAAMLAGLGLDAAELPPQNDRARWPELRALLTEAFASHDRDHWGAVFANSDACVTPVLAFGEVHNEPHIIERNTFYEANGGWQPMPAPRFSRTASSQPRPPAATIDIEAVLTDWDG
Description: Data was collected as previously described using ibuprofenoyl-CoA 1 at 0, 3.2, 10, and 32 μM, 3.12 nM MCR, and 50.2 to 576 μM substrate (final concentrations) in 50 mM NaH2PO4-NaOH, 100 mM NaCl, and 1 mM EDTA, pH 7.4 and 3% (v/v) DMSO. Enzyme and inhibitor stock solutions were pre-incubated together for 10 min before initiating the assay. Rates were determined using ICEKAT ([46], [47]), with logarithmic fit of the data and correction of rates for delays between reaction initiation and first read. Data was analyzed using SigmaPlot 15.0 using Simple EK and the enzyme kinetics macro, with the correct inhibition model selected using graphs (Fig. S19, A–G) and statistical ranking of models. The determined Ki value is the mean ± SEM for three independent repeats.

[3] = target: T1, MCR (α-methylacyl-CoA racemase from Mycobacterium tuberculosis); assay: Jump-dilution experiment (reversibility of inhibition); assay type: biochemical; parameters: made in house; settings: 12-min time-course, inhibitor at 6x or 0.06x the IC50
[4] = target: T1, MCR (α-methylacyl-CoA racemase from Mycobacterium tuberculosis); assay: Colorimetric inhibition assay, dose-response curves; settings: for Max % (coefficient): fitted maximum % activity; for Min % (coefficient): fitted minimum % activity; for Hillslope (coefficient): 4-parameter logistic fit; for pIC50 lower than expected based on LogP: from plot of pIC50 vs. calculated LogP
[5] = target: T1, MCR (α-methylacyl-CoA racemase from Mycobacterium tuberculosis); assay: Deuterium-exchange assay (substrate α-proton exchange, 1H NMR); assay type: biochemical; parameters: made in house; settings: 100 μM acyl-CoA, 2.34 nM MCR, ca. 85% 2H2O, 30 °C
Description: Exchange of substrate α-protons was assessed using the deuterium-exchange assay as previously described ([19], [32]). Assay mixtures contained 55 ng (2.34 nM) of active or heat-inactivated MCR, 100 μM acyl-CoA, 50 mM NaH2PO4-NaOH, pH 7.4 and ca. 85% (v/v) ^2H2O in a total volume of 600 μl. Fenoprofenoyl-CoA 2 was used as a positive control. Reactions were initiated by the addition of enzyme, and reaction mixtures were incubated at 30 °C for 1 h before quenching at 55 °C for 10 min. NMR data were collected on a Bruker Avance Neo operating at 500.13 MHz for proton at 25 °C. Solvent suppression was achieved using a pre-saturation experiment. Typically, 128 transients were recorded. Data were processed using Topspin 4.0.7. Analysis of deuterium-exchange is based upon changes in intensity of either the substrate methine protons in the α-position or by the effects of the loss of those α-proton on a coupled methyl group.

[6] = tested on: MCR; parameters: method as in PMID 26759836; settings: cited from earlier work
[7] = LogIC50 (coefficient), individual independent repeats 1-3, 4-parameter logistic fit of mean % activity (2 technical repeats)
[8] = individual independent repeats 1-3
[9] = pIC50, mean ± SEM, n = 3, colorimetric assay, 96 μM substrate, 3.12 nM MCR, 10 min pre-incubation

SMILES | IC50 [4, 7] | Max % (coefficient) [4, 8] | Min % (coefficient) [4, 8] | Hillslope (coefficient) [4, 8] | IC50 [4, 9] | other results
CC(C)Cc1ccc(C(C)C(=O)SCCNC(=O)CCNC(=O)C(O)C(C)(C)COP(=O)(O)OP(=O)(O)OCC2OC(n3cnc4c(N)ncnc43)C(O)C2OP(=O)(O)O)cc1 (racemic) [compound 1, ±-Ibuprofenoyl-CoA] | 10.9 µM and 8.94 µM and 7.48 µM | 105.5482% and 98.8641% and 101.2444% | 2.6168% and 2.9187% and 2.6510% | -0.9604 and -0.9180 and -0.9734 | 8.91 µM | Ki ([1]; human AMACR 1A, mean ± SEM, n = 1): 0.06 ± 0.00478 µM; Ki ([2]; individual repeats 1-3, inhibitor 0, 3.2, 10, 32 μM, 50.2 to 576 μM substrate): 3.06 µM and 2.44 µM and 3.62 µM; Ki ([2]; mean ± SEM, n = 3, competitive inhibition model): 3.04 ± 0.34 µM; mode of inhibition ([2]; Lineweaver-Burk plot and statistical ranking of models): competitive inhibition; reversibility of inhibition [3]: reversible inhibition; potency on MCR relative to human AMACR (fold less potent) ([4]; MCR versus human AMACR): ~20 fold
CC(C(=O)SCCNC(=O)CCNC(=O)C(O)C(C)(C)COP(=O)(O)OP(=O)(O)OCC1OC(n2cnc3c(N)ncnc32)C(O)C1OP(=O)(O)O)c1cccc(Oc2ccccc2)c1 (racemic) [compound 2, ±-Fenoprofenoyl-CoA] | 20.4 µM and 11.7 µM and 14.2 µM | 99.3868% and 110.2399% and 93.4385% | -1.0173% and 2.2137% and -0.7388% | -0.8331 and -0.7292 and -0.8187 | 15.1 µM | relative inhibitor potency ([1]; human AMACR): most potent inhibitor
CC(C(=O)SCCNC(=O)CCNC(=O)C(O)C(C)(C)COP(=O)(O)OP(=O)(O)OCC1OC(n2cnc3c(N)ncnc32)C(O)C1OP(=O)(O)O)c1ccc(-c2ccccc2)c(F)c1 (racemic) [compound 4, ±-Flurbiprofenoyl-CoA] | 13.1 µM and 21.1 µM and 21.2 µM | 97.7981% and 95.9188% and 94.6575% | 1.7221% and 0.8368% and 2.1053% | -0.9708 and -1.0277 and -1.0055 | 18.2 µM | –
CC(C(=O)SCCNC(=O)CCNC(=O)C(O)C(C)(C)COP(=O)(O)OP(=O)(O)OCC1OC(n2cnc3c(N)ncnc32)C(O)C1OP(=O)(O)O)c1cccc(C(=O)c2ccccc2)c1 (centres unmarked) [compound 3, S-Ketoprofenoyl-CoA] | 31.5 µM and 30.8 µM | 100.4116% and 96.3493% and 103.0106% | -9.0253% and -2.7332% and -8.7722% | -0.6349 and -0.7776 and -0.7146 | 31.6 µM | pIC50 lower than expected based on LogP [4]: approximately 0.3
COc1ccc2cc(C(C)C(=O)SCCNC(=O)CCNC(=O)C(O)C(C)(C)COP(=O)(O)OP(=O)(O)OCC3OC(n4cnc5c(N)ncnc54)C(O)C3OP(=O)(O)O)ccc2c1 (centres unmarked) [compound 5, S-Naproxenoyl-CoA] | 19.5 µM and 15.6 µM and 15.5 µM | 99.5824% and 102.2413% and 102.0390% | -0.6400% and -0.5309% and -2.7274% | -0.7858 and -0.8072 and -0.6833 | 17 µM | pIC50 lower than expected based on LogP [4]: approximately 0.3
CCCCCCCCC(C)C(=O)SCCNC(=O)CCNC(=O)[C@H](O)C(C)(C)COP(=O)(O)OP(=O)(O)OC[C@H]1O[C@@H](n2cnc3c(N)ncnc32)[C@H](O)[C@@H]1OP(=O)(O)O (some centres unmarked) [compound 6, S-2-Methyldecanoyl-CoA] | 62.8 µM and 67.4 µM and 46.5 µM | 104.1285% and 101.8704% and 101.0137% | 10.2466% and 13.4630% and 9.4607% | -1.5837 and -2.4923 and -1.4587 | 58.9 µM | –
CCCCCCCCCC(=O)SCCNC(=O)CCNC(=O)C(O)C(C)(C)COP(=O)(O)OP(=O)(O)OCC1OC(n2cnc3c(N)ncnc32)C(O)C1OP(=O)(O)O (centres unmarked) [compound 7, Decanoyl-CoA] | – | – | – | – | ~100 µM | –
CCCCCCCC(=O)SCCNC(=O)CCNC(=O)C(O)C(C)(C)COP(=O)(O)OP(=O)(O)OCC1OC(n2cnc3c(N)ncnc32)C(O)C1OP(=O)(O)O (centres unmarked) [compound 8, Octanoyl-CoA] | – | – | – | – | ~100 µM | –
CCCCCC(=O)SCCNC(=O)CCNC(=O)C(O)C(C)(C)COP(=O)(O)OP(=O)(O)OCC1OC(n2cnc3c(N)ncnc32)C(O)C1OP(=O)(O)O (centres unmarked) [compound 9, Hexanoyl-CoA] | – | – | – | – | ~316 µM | –
CCCC(=O)SCCNC(=O)CCNC(=O)C(O)C(C)(C)COP(=O)(O)OP(=O)(O)OCC1OC(n2cnc3c(N)ncnc32)C(O)C1OP(=O)(O)O (centres unmarked) [compound 10, n-Butanoyl-CoA] | – | – | – | – | ~562 µM | –
CC(=O)SCCNC(=O)CCNC(=O)C(O)C(C)(C)COP(=O)(O)OP(=O)(O)OCC1OC(n2cnc3c(N)ncnc32)C(O)C1OP(=O)(O)O (centres unmarked) [compound 11, Acetyl-CoA] | – | – | – | – | ~1000 µM | –
CC(C)C(=O)SCCNC(=O)CCNC(=O)C(O)C(C)(C)COP(=O)(O)OP(=O)(O)OCC1OC(n2cnc3c(N)ncnc32)C(O)C1OP(=O)(O)O (centres unmarked) [compound 12, Isobutanoyl-CoA] | – | – | – | – | ~1000 µM | α-proton exchange [5]: significant α-proton exchange
CC(C)(COP(=O)(O)OP(=O)(O)OC[C@H]1O[C@@H](n2cnc3c(N)ncnc32)[C@H](O)[C@@H]1OP(=O)(O)O)[C@@H](O)C(=O)NCCC(=O)NCCSC(=O)C(c1ccccc1)c1ccccc1 [diphenylacetyl-CoA] | – | – | – | – | – | α-proton exchange [6]: did not undergo α-proton exchange
